According to US4385055A, “2-Acetyl-and 2-propionylpyridine thiosemicarbazones as antimalarials” (The United States of America as represented by the …, priority 1981, dated 1983):
In brackets after ≈: the same amount, converted by molar mass. Where two headings read alike, the source gives them in different places.

Assays:
[1] = tested on: Mycobacterium intracellulare; experiment: Broth dilution MIC, Mycobacterium intracellulare strains (Test 6); type: cell-based; settings: read-out: Minimum Inhibitory Concentration
Neisseria meningitidis = experiment: Macro broth dilution MIC, Neisseria meningitidis isolates (Test 2); type: cell-based; settings: Neisseria meningitidis, 24 h, read after 24 hours, read-out: Minimum Inhibitory Concentration
Procedure: Compounds were tested against five isolates of Neisseria meningitidis. The bacterial isolates were provided by the Department of Bacterial Diseases of the Walter Reed Army Institute of Research. The test procedure used was the macro broth dilution method in duplicate outlined by J. C. Sherris on pages 414-415 (loc. cit.). The test compounds and controls were prepared as in Test 1 above. Ampicillin and penicillin standards were initially diluted as described by J. C. Sherris on pages 411-412 (loc. cit.) followed by dilution with Mueller-Hinton broth. The tubes were incubated at 37° C. under 5-10% carbon dioxide.

Neisseria gonorrhoeae = experiment: Agar dilution MIC, Neisseria gonorrhoeae isolates (Test 3); type: cell-based; settings: 24 h, read-out: Minimum Inhibitory Concentration
Procedure: Compounds were tested against six Neisseria gonorrhoeae isolates. The bacteria used were provided by the Department of Bacterial Diseases of the Walter Reed Army Institute of Research. The test procedure used was the agar dilution method in duplicate as outlined by J. C. Sherris on pages 411-412 (loc. cit.). GC Medium (Difco) with a 2% defined supplement added as described by D. S. Kellogg et al. [J. Bact. 85:1274-1279 (1963)] was used as the media. The compounds were dissolved in DMSO (1.0 mg/mL), diluted with GC broth (GC Medium without agar) to the appropriate concentration, and added to the GC Medium at 55°-56° C. The latter was then poured and allowed to solidify. A penicillin standard was also prepared with initial dilutions as described by J. C. Sherris followed by dilutions with GC broth and addition to the GC Medium at 55°-56° C. as above. The inoculum was 1:200 GC broth dilution of a suspension of colony isolates after the suspension was adjusted visually to the turbidity standard described by J. M. Matsen and A. L. Barr on page 422 in "Manual of Clinical Microbiology," 2nd ed., E. Lennette, E. H. Spaulding, and J. P. Truant, Ed. (American Society for Microbiology, Washington, D.C., 1974). The plates were inoculated with a replicator and incubated at 37° C. under 5-10% carbon dioxide.

[2] = tested on: Plasmodium berghei KBG 173; experiment: In vivo antimalarial activity in mice (Test 5); settings: Plasmodium berghei; computed estimate of the dose required to cure 50% of the mice
Procedure: Compounds were tested against Plasmodium berghei KBG 173 malaria in mice following the procedure described by T. S. Osdene, P. B. Russell, and L. Rane [J. Med. Chem. 10:431-434 (1967)]. Five mice were tested at each dosage level. Mice surviving 60 days are considered cured. Toxicity is defined as a decrease in the mean survival time of the treated mice as compared to the control group. Activity is defined as a 100% increase in the mean survival time of the treated mice compared to the control group.

Group D Enterococcus = experiment: Macro broth dilution MIC, Group D Enterococcus isolates (Test 1); type: cell-based; settings: 24 h, read after 24 hours, read-out: Minimum Inhibitory Concentration
Procedure: (§1) Compounds were tested against five isolates of Staphylococcus aureus and five isolates of Group D Enterococcus. The bacteria used were isolated from patients at the Walter Reed Army Medical Center, Washington, D.C. The test procedure used was the macro broth dilution method in duplicate as outlined by J. C. Sherris on pages 414-415 in "Manual of Clinical Microbiology," 2nd ed., E. Lennette, E. H. Spaulding, and J. P. Truant, Ed. (American Society for Microbiology, Washington, D.C., 1974). Each compound was dissolved in DMSO (12.8 mg/mL) and then diluted with Mueller-Hinton broth to obtain the desired dilutions. Tubes containing the highest quantities of DMSO with no compound present were run as controls.

Staphylococcus aureus = experiment: Macro broth dilution MIC, Staphylococcus aureus isolates (Test 1); type: cell-based; settings: 24 h, read after 24 hours, read-out: Minimum Inhibitory Concentration
Procedure: as §1

CC(=NNC(=S)N1CC2CCC(CC2)C1)c1ccccn1 [L, 3-Azabicyclo[3.2.2]nonane-3-thiocarboxylic acid 2-[1-(2-pyridyl)ethylidene]hydrazide]
MIC ([1]; Mycobacterium intracellulare strain I): 10 µg/mL (≈ 33.1 µM) | MIC ([1]; Mycobacterium intracellulare strain II): 1 µg/mL (≈ 3.31 µM) | MIC ([1]; Mycobacterium intracellulare strain III): 1 µg/mL (≈ 3.31 µM) | MIC ([1]; Mycobacterium intracellulare strain IV): 0.1 µg/mL (≈ 0.331 µM) | MIC ([1]; Mycobacterium intracellulare strain V): 0.1 µg/mL (≈ 0.331 µM) | MIC ([1]; Mycobacterium intracellulare strain VI): 0.1 µg/mL (≈ 0.331 µM) | MIC (Neisseria meningitidis; Neisseria meningitidis isolate 7957): 0.031 µg/mL (≈ 0.102 µM) | MIC (Neisseria meningitidis; Neisseria meningitidis isolate 7990): 0.062 µg/mL (≈ 0.205 µM) | MIC (Neisseria meningitidis; Neisseria meningitidis isolate 8005): < 0.031 µg/mL | MIC (Neisseria meningitidis; Neisseria meningitidis isolate 8006): 0.062 µg/mL (≈ 0.205 µM) | MIC (Neisseria meningitidis; Neisseria meningitidis isolate 8011): 0.125 µg/mL (≈ 0.413 µM) | MIC (Neisseria gonorrhoeae; Neisseria gonorrhoeae isolate 135, read after 24 hours): 0.031 µg/mL (≈ 0.102 µM) | MIC (Neisseria gonorrhoeae; Neisseria gonorrhoeae isolate 161, read after 24 hours): 0.016 µg/mL (≈ 0.0529 µM) | MIC (Neisseria gonorrhoeae; Neisseria gonorrhoeae isolate 278, read after 24 hours): 0.031 µg/mL (≈ 0.102 µM) | MIC (Neisseria gonorrhoeae; Neisseria gonorrhoeae isolate 455, read after 24 hours): 0.031 µg/mL (≈ 0.102 µM) | MIC (Neisseria gonorrhoeae; Neisseria gonorrhoeae isolate 456, read after 24 hours): 0.031 µg/mL (≈ 0.102 µM) | MIC (Neisseria gonorrhoeae; Neisseria gonorrhoeae isolate 602, read after 24 hours): 0.031 µg/mL (≈ 0.102 µM) | ED50 [2]: 59 mg/kg | MIC (Group D Enterococcus; Group D Enterococcus isolate I): 2 µg/mL (≈ 6.61 µM) | MIC (Group D Enterococcus; Group D Enterococcus isolate II): 2 µg/mL (≈ 6.61 µM) | MIC (Group D Enterococcus; Group D Enterococcus isolate III): 2 µg/mL (≈ 6.61 µM) | MIC (Group D Enterococcus; Group D Enterococcus isolate IV): 2 µg/mL (≈ 6.61 µM) | MIC (Group D Enterococcus; Group D Enterococcus isolate V): 2 µg/mL (≈ 6.61 µM) | MIC (Staphylococcus aureus; Staphylococcus aureus isolate I): 1 µg/mL (≈ 3.31 µM) | MIC (Staphylococcus aureus; Staphylococcus aureus isolate II): 1 µg/mL (≈ 3.31 µM) | MIC (Staphylococcus aureus; Staphylococcus aureus isolate III): 1 µg/mL (≈ 3.31 µM) | MIC (Staphylococcus aureus; Staphylococcus aureus isolate IV): 1 µg/mL (≈ 3.31 µM) | MIC (Staphylococcus aureus; Staphylococcus aureus isolate V): 1 µg/mL (≈ 3.31 µM)
